# Test results reported in patent EP3375430A1, “FRAGRANCE COMPOSITIONS” (Takasago International Corporation, priority 2017, dated 2018).
# Test: Amount of fragrance ingredients retained on paper blotter after evaporation (ethanol extraction, GC-MS)
# Assay type: physicochemical
# Description: A fragrance (hereafter fragrance TAK, the formulation of which is shown in table 1) was formulated in a typical Eau de Toilette (EdT1) or in fragrance compositions according to the invention (compositions C1 to C4), as shown in table 2. The amount of individual fragrance ingredients retained on paper substrate (blotter) after set time periods was assessed by the following method.
# 100µL samples of either EdT1 or compositions C1 to C4 were applied to 4.5cm long standard paper blotters with a microsyringe. Three replicate blotters were prepared for each extraction time. After the appropriate evaporation time each of the 3 blotters was transferred to a 30mL glass bottle. 3mL of ethanol and 50µL of a 1% solution of methyl decanoate in ethanol as an internal standard were added. The bottle was sealed and placed on a roller bed to extract the blotter for 1 hour. A sample of the extracting solution was transferred to a vial which was sealed and analysed by gas chromatography (GC 6890) with a Mass Spectrometer detector (MS 5973) using the method described below. The results of the three replicate measurements were averaged. At exact times the same extraction was repeated on the remaining blotters which were stored on a warm surface at 32°C open to the air to allow evaporation. The gas chromatography conditions were as given below.
# • Initial Temp: 50°C • Initial Time: 2 min • Rate: 10°C /min • Final Temp: 280°C • Final Time: 5 min • Run Time: 30 min
# • Column: HP-5MS 30m * 0.25mm * 0.25µm • Gas: Helium • Constant Pressure 18.55 psi
# • Split mode Ratio 40:1 • Inlet Temp: 250°C
# • MS 5973 • Mass range: 35 to 350 • Threshold: 100 • Mass Quad: 150°C • Mass Source: 230°C
# To simplify the results the average amount of each fragrance ingredient from the 3 samples measured at time zero was set at 100% and all other measurements were then related to that value so tables 3 to 6 show decreasing amounts of fragrance ingredients as a percentage of the initial amount.
# The method of example 1 was repeated using a commercial fragrance (hereafter fragrance COM1, the formulation of which is given in table 7) formulated in a typical Eau de Toilette (EdT2) or in fragrance compositions according to the invention (compositions C5 and C6), as shown in table 8.
# [1] = Table 9, fragrance COM1 in C5, T0 + 15 min
# [2] = Table 9, fragrance COM1 in C5, T0 + 480 min
# [3] = Table 9, fragrance COM1 in C5, T0 +1440 min
# [4] = Table 9, fragrance COM1 in C6, T0 + 15 min
# [5] = Table 9, fragrance COM1 in C6, T0 + 480 min
# [6] = Table 9, fragrance COM1 in C6, T0 +1440 min
# [7] = Table 9, fragrance COM1 in EdT2, C5 or C6, T0, set at 100% (normalisation)
# [8] = Table 9, fragrance COM1 in EdT2, T0 + 15 min
# [9] = Table 9, fragrance COM1 in EdT2, T0 + 480 min
# [10] = Table 9, fragrance COM1 in EdT2, T0 +1440 min
molecule,measurement,setting,value
"CC1(C)CCC[C@]2(C)[C@H]3CCO[C@]3(C)CC[C@@H]12 [Ambroxan™, (3aR,5aS,9aS,9bR)-3a,6,6,9a-tetramethyl-2,4,5,5a,7,8,9,9b-octahydro-1H-benzo[e][1]benzofuran]",amount of fragrance ingredient retained on blotter (percentage of the initial amount),[1],85.4%
same,amount of fragrance ingredient retained on blotter (percentage of the initial amount),[2],68.9%
same,amount of fragrance ingredient retained on blotter (percentage of the initial amount),[3],40.11%
same,amount of fragrance ingredient retained on blotter (percentage of the initial amount),[4],75.6%
same,amount of fragrance ingredient retained on blotter (percentage of the initial amount),[5],52.6%
same,amount of fragrance ingredient retained on blotter (percentage of the initial amount),[6],29.9%
same,amount of fragrance ingredient retained on blotter (percentage of the initial amount),[7],100%
same,amount of fragrance ingredient retained on blotter (percentage of the initial amount),[8],81.5%
same,amount of fragrance ingredient retained on blotter (percentage of the initial amount),[9],56.6%
same,amount of fragrance ingredient retained on blotter (percentage of the initial amount),[10],15.42%
"CC(C)(C)c1ccc(CCC=O)cc1 [Bourgeonal™, 3-(4-tert-butylphenyl)propanal]",amount of fragrance ingredient retained on blotter (percentage of the initial amount),[1],86%
same,amount of fragrance ingredient retained on blotter (percentage of the initial amount),[2],59.8%
same,amount of fragrance ingredient retained on blotter (percentage of the initial amount),[3],28.82%
same,amount of fragrance ingredient retained on blotter (percentage of the initial amount),[4],75.6%
same,amount of fragrance ingredient retained on blotter (percentage of the initial amount),[5],43.6%
same,amount of fragrance ingredient retained on blotter (percentage of the initial amount),[6],20.9%
same,amount of fragrance ingredient retained on blotter (percentage of the initial amount),[7],100%
same,amount of fragrance ingredient retained on blotter (percentage of the initial amount),[8],81.4%
same,amount of fragrance ingredient retained on blotter (percentage of the initial amount),[9],43.9%
same,amount of fragrance ingredient retained on blotter (percentage of the initial amount),[10],13.42%
CC(C=O)Cc1ccc(C(C)C)cc1 (stereo not drawn) [Cyclamen aldehyde],amount of fragrance ingredient retained on blotter (percentage of the initial amount),[1],85.8%
same,amount of fragrance ingredient retained on blotter (percentage of the initial amount),[2],45.2%
same,amount of fragrance ingredient retained on blotter (percentage of the initial amount),[3],14.71%
same,amount of fragrance ingredient retained on blotter (percentage of the initial amount),[4],75.4%
same,amount of fragrance ingredient retained on blotter (percentage of the initial amount),[5],33.2%
same,amount of fragrance ingredient retained on blotter (percentage of the initial amount),[6],12.0%
same,amount of fragrance ingredient retained on blotter (percentage of the initial amount),[7],100%
same,amount of fragrance ingredient retained on blotter (percentage of the initial amount),[8],81.5%
same,amount of fragrance ingredient retained on blotter (percentage of the initial amount),[9],30.7%
same,amount of fragrance ingredient retained on blotter (percentage of the initial amount),[10],7.12%
CC=CC(=O)C1=C(C)CCCC1(C)C [Damascone beta],amount of fragrance ingredient retained on blotter (percentage of the initial amount),[1],81.9%
same,amount of fragrance ingredient retained on blotter (percentage of the initial amount),[2],20.5%
same,amount of fragrance ingredient retained on blotter (percentage of the initial amount),[3],2.12%
same,amount of fragrance ingredient retained on blotter (percentage of the initial amount),[4],74.8%
same,amount of fragrance ingredient retained on blotter (percentage of the initial amount),[5],14.7%
same,amount of fragrance ingredient retained on blotter (percentage of the initial amount),[6],1.9%
same,amount of fragrance ingredient retained on blotter (percentage of the initial amount),[7],100%
same,amount of fragrance ingredient retained on blotter (percentage of the initial amount),[8],78.2%
same,amount of fragrance ingredient retained on blotter (percentage of the initial amount),[9],10.6%
same,amount of fragrance ingredient retained on blotter (percentage of the initial amount),[10],4.25%
O=C1CCCCCCCCCCCC(=O)OCCO1 [Ethylene Brassylate],amount of fragrance ingredient retained on blotter (percentage of the initial amount),"Table 3, fragrance TAK in C1, 15 min, 32°C",81%
same,amount of fragrance ingredient retained on blotter (percentage of the initial amount),"Table 3, fragrance TAK in C1, 60 min, 32°C",79%
same,amount of fragrance ingredient retained on blotter (percentage of the initial amount),"Table 3, fragrance TAK in C1, 120 min, 32°C",81%
same,amount of fragrance ingredient retained on blotter (percentage of the initial amount),"Table 3, fragrance TAK in C1, 240 min, 32°C",86%
same,amount of fragrance ingredient retained on blotter (percentage of the initial amount),"Table 3, fragrance TAK in C1, 480 min, 32°C",79%
same,amount of fragrance ingredient retained on blotter (percentage of the initial amount),"Table 3, fragrance TAK in EdT1, 15 min, 32°C",88%
same,amount of fragrance ingredient retained on blotter (percentage of the initial amount),"Table 3, fragrance TAK in EdT1, 60 min, 32°C",85%
same,amount of fragrance ingredient retained on blotter (percentage of the initial amount),"Table 3, fragrance TAK in EdT1, 120 min, 32°C",90%
same,amount of fragrance ingredient retained on blotter (percentage of the initial amount),"Table 3, fragrance TAK in EdT1, 240 min, 32°C",98%
same,amount of fragrance ingredient retained on blotter (percentage of the initial amount),"Table 3, fragrance TAK in EdT1, 480 min, 32°C",100%
same,amount of fragrance ingredient retained on blotter (percentage of the initial amount),"Table 3, fragrance TAK in EdT1 or C1, T0, set at 100% (normalisation)",100%
same,amount of fragrance ingredient retained on blotter (percentage of the initial amount),"Table 4, fragrance TAK in C2, 15 min, 32°C",97%
same,amount of fragrance ingredient retained on blotter (percentage of the initial amount),"Table 4, fragrance TAK in C2, 480 min, 32°C",77%
same,amount of fragrance ingredient retained on blotter (percentage of the initial amount),"Table 4, fragrance TAK in EdT1, 15 min, 32°C",87%
same,amount of fragrance ingredient retained on blotter (percentage of the initial amount),"Table 4, fragrance TAK in EdT1, 480 min, 32°C",73%
same,amount of fragrance ingredient retained on blotter (percentage of the initial amount),"Table 4, fragrance TAK in EdT1 or C2, T0, set at 100% (normalisation)",100%
same,amount of fragrance ingredient retained on blotter (percentage of the initial amount),"Table 5, fragrance TAK in C3, 15 min, 32°C",80%
same,amount of fragrance ingredient retained on blotter (percentage of the initial amount),"Table 5, fragrance TAK in C3, 60 min, 32°C",93%
same,amount of fragrance ingredient retained on blotter (percentage of the initial amount),"Table 5, fragrance TAK in C3, 120 min, 32°C",93%
same,amount of fragrance ingredient retained on blotter (percentage of the initial amount),"Table 5, fragrance TAK in C3, 240 min, 32°C",100%
same,amount of fragrance ingredient retained on blotter (percentage of the initial amount),"Table 5, fragrance TAK in C3, 480 min, 32°C",82%
same,amount of fragrance ingredient retained on blotter (percentage of the initial amount),"Table 5, fragrance TAK in C3, 1440 min, 32°C",96%
same,amount of fragrance ingredient retained on blotter (percentage of the initial amount),"Table 5, fragrance TAK in EdT1, 15 min, 32°C",88%
same,amount of fragrance ingredient retained on blotter (percentage of the initial amount),"Table 5, fragrance TAK in EdT1, 60 min, 32°C",85%
same,amount of fragrance ingredient retained on blotter (percentage of the initial amount),"Table 5, fragrance TAK in EdT1, 120 min, 32°C",90%
same,amount of fragrance ingredient retained on blotter (percentage of the initial amount),"Table 5, fragrance TAK in EdT1, 240 min, 32°C",98%
same,amount of fragrance ingredient retained on blotter (percentage of the initial amount),"Table 5, fragrance TAK in EdT1, 480 min, 32°C",100%
same,amount of fragrance ingredient retained on blotter (percentage of the initial amount),"Table 5, fragrance TAK in EdT1, 1440 min, 32°C",85%
same,amount of fragrance ingredient retained on blotter (percentage of the initial amount),"Table 5, fragrance TAK in EdT1 or C3, T0, set at 100% (normalisation)",100%
same,amount of fragrance ingredient retained on blotter (percentage of the initial amount),"Table 6, fragrance TAK in C4, 15 min, 32°C",100%
same,amount of fragrance ingredient retained on blotter (percentage of the initial amount),"Table 6, fragrance TAK in C4, 60 min, 32°C",93%
same,amount of fragrance ingredient retained on blotter (percentage of the initial amount),"Table 6, fragrance TAK in C4, 120 min, 32°C",96%
same,amount of fragrance ingredient retained on blotter (percentage of the initial amount),"Table 6, fragrance TAK in C4, 240 min, 32°C",100%
same,amount of fragrance ingredient retained on blotter (percentage of the initial amount),"Table 6, fragrance TAK in C4, 480 min, 32°C",100%
same,amount of fragrance ingredient retained on blotter (percentage of the initial amount),"Table 6, fragrance TAK in EdT1, 15 min, 32°C",88%
same,amount of fragrance ingredient retained on blotter (percentage of the initial amount),"Table 6, fragrance TAK in EdT1, 60 min, 32°C",85%
same,amount of fragrance ingredient retained on blotter (percentage of the initial amount),"Table 6, fragrance TAK in EdT1, 120 min, 32°C",90%
same,amount of fragrance ingredient retained on blotter (percentage of the initial amount),"Table 6, fragrance TAK in EdT1, 240 min, 32°C",98%
same,amount of fragrance ingredient retained on blotter (percentage of the initial amount),"Table 6, fragrance TAK in EdT1, 480 min, 32°C",100%
same,amount of fragrance ingredient retained on blotter (percentage of the initial amount),"Table 6, fragrance TAK in EdT1 or C4, T0, set at 100% (normalisation)",100%
Methyl ionone gamma,amount of fragrance ingredient retained on blotter (percentage of the initial amount),[1],84.0%
same,amount of fragrance ingredient retained on blotter (percentage of the initial amount),[2],32.8%
same,amount of fragrance ingredient retained on blotter (percentage of the initial amount),[3],5.68%
same,amount of fragrance ingredient retained on blotter (percentage of the initial amount),[4],74.2%
same,amount of fragrance ingredient retained on blotter (percentage of the initial amount),[5],23.3%
same,amount of fragrance ingredient retained on blotter (percentage of the initial amount),[6],5.2%
same,amount of fragrance ingredient retained on blotter (percentage of the initial amount),[7],100%
same,amount of fragrance ingredient retained on blotter (percentage of the initial amount),[8],79.2%
same,amount of fragrance ingredient retained on blotter (percentage of the initial amount),[9],16.4%
same,amount of fragrance ingredient retained on blotter (percentage of the initial amount),[10],3.77%
